From ChEMBL document CHEMBL1201862, “PubChem BioAssay data set” (2004)
Activity calls are given as the source filed them.

Assays:
[1] = Luminescence Cell-Based Dose Retest to Confirm Inhibitors of Cancer Stem Cells. [Related pubchem assays (depositor defined):AID2717, AID2721]; assay type: functional; settings: Homo sapiens
[2] = Shn3 3'UTR reporter inhibitors, dose response, cell-based, Clone20 osteoblasts, firefly luciferase, cherry-picked (AID 624132); assay type: functional;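 further: firefly luciferase luminescence from reporter carrying the Shn3 3'UTR in osteoblasts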
[3] = HepG2 cell cytotoxicity, dose response, cytotoxicity control for Shn3 inhibitor project, CellTiter-Glo, cherry-picked (AID 624134); assay type: functional, cell-based
Paired box protein Pax-8 = Paired box protein Pax-8 (Homo sapiens, UniProt Q06710); test: inhibitors of PAX8-driven TPO luciferase reporter, dose response, RMG-I cells, cherry-pick (AID 687027); assay type: functional, cell-based;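 further: luciferase reporter driven by Pax8 target thyroperoxidase promoter measured by SteadyGlo luminescence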
Sequence of Paired box protein Pax-8 (Q06710 whole entry): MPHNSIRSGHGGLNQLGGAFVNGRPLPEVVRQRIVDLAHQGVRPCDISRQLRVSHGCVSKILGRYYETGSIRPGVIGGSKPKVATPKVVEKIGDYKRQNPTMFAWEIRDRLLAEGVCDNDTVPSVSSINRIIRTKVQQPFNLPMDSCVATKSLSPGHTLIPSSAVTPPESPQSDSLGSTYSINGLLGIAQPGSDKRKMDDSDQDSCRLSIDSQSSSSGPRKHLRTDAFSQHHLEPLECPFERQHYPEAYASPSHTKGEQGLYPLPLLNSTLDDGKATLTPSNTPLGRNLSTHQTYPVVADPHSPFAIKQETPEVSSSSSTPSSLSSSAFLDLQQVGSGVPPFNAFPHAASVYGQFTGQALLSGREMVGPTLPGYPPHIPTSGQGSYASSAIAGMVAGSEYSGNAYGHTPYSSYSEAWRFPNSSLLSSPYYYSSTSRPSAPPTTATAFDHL

[4] = non-specific cell cytotoxicity, dose response, cytotoxicity control for PAX8 inhibitor project, plate reader, dry powder samples (AID 743021); assay type: functional, cell-based
Vero = Vero cell cytotoxicity, cytotoxicity control for flavivirus capping enzyme inhibitors (AID 588742); assay type: functional; settings: Chlorocebus sabaeus
Genome polyprotein = Genome polyprotein (dengue virus type 2, UniProt P29990); test: Dengue-2 NS5 methyltransferase inhibitors, primary screen, biochemical, confirmation dose response (AID 588689); assay type: functional
Sequence of Genome polyprotein (P29990 2492-3391 limits assumed): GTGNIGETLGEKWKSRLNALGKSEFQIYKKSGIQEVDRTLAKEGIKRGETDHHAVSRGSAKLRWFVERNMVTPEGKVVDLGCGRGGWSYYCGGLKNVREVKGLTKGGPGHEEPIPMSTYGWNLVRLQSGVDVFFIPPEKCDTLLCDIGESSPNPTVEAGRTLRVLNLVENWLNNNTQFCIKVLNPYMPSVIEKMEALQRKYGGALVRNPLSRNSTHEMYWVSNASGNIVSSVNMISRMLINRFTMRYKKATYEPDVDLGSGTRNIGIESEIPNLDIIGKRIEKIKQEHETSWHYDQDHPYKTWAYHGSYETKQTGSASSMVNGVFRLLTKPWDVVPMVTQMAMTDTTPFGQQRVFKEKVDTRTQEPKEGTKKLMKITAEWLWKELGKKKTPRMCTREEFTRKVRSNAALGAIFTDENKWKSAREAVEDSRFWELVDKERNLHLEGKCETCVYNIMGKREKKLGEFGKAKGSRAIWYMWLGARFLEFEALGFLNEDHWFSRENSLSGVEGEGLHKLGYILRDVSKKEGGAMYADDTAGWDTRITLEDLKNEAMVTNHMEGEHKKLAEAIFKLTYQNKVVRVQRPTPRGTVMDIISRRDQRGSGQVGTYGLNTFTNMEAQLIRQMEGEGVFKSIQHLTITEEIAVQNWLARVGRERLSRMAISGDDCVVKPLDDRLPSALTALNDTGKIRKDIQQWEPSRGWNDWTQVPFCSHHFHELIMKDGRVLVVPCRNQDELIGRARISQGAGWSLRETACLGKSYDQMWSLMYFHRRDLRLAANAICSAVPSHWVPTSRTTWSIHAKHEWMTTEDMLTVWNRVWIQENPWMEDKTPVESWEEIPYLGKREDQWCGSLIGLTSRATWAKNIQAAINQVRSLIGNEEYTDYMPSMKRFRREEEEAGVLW

[5] = inhibitors of HIV Env-driven cell fusion, dose response, cherry-pick (AID 652057); assay type: functional, cell-based
[6] = ZM109 Env clade C HIV-1 fusion inhibitors, dose response, HeLa effector, CEM target cells, luciferase, cherry-pick (AID 652058); assay type: functional, cell-based
[7] = inhibitors of clade B AD8 Env fusion, dose response, cell-based, cherry-pick (AID 652062); assay type: functional;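 further: luciferase signal from cell-cell fusion driven by HIV-1 clade B AD8 Env; potency is for inhibitors of fusion seen as a drop in luminescence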
[8] = target: T1, Carboxy-terminal domain RNA polymerase II polypeptide A small phosphatase 1 (Homo sapiens, UniProt Q9GZU7); test: inhibitors of CTDSP1, concentration-response testing, biochemical assay, absorbance-based, actives from ultra-high-throughput screening (AID 540297); assay type: functional
T1 sequence (Q9GZU7 whole entry): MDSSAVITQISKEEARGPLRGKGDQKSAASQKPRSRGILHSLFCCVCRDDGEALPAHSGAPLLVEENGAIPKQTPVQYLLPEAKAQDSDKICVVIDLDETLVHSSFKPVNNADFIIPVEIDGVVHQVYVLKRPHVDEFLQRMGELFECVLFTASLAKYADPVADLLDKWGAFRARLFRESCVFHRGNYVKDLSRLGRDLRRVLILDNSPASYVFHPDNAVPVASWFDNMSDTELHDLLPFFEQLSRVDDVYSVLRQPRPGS

HEK293 = test: inhibitors of LMP1-driven NF-kB reporter, dose response, cell-based, HEK293, luciferase, cherry-pick (AID 588343); assay type: functional; settings: Homo sapiens
[9] = LGR2 antagonists, dose response, cell-based, HEK293, CRE-luciferase reporter, cherry pick, set 2 (AID 743343); assay type: functional;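 further: transfected cells were stimulated with diluted bursicon conditioned medium after compound addition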
[10] = MC4R antagonists, dose response, counter-screen for LGR2 antagonist project, cell-based, plate reader, cherry pick (AID 743444); assay type: functional;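 further: transfected HEK 293 cells stimulated with alpha-MSH peptide; potency of inhibitors of the alpha-MSH evoked signal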
Nonstructural protein 1 = Nonstructural protein 1 (Influenza A virus, UniProt Q194T2); assay type: functional, Influenza A virus (A/California/07/2009(H1N1))
Sequence of Nonstructural protein 1 (Q194T2 whole entry): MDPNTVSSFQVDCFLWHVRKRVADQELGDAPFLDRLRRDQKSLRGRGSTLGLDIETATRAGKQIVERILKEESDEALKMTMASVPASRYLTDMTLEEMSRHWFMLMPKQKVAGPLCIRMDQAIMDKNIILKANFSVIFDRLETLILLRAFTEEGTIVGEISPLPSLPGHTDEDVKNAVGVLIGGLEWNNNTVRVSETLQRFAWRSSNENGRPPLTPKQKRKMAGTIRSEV

[11] = target: T2, Replicative DNA helicase DnaB (Mycobacterium tuberculosis, UniProt P9WMR3); test: DnaB intein splicing inhibitors, dose response, biochemical, cell-free fluorescence (AID 449749); assay type: functional
T2 sequence (P9WMR3 whole entry): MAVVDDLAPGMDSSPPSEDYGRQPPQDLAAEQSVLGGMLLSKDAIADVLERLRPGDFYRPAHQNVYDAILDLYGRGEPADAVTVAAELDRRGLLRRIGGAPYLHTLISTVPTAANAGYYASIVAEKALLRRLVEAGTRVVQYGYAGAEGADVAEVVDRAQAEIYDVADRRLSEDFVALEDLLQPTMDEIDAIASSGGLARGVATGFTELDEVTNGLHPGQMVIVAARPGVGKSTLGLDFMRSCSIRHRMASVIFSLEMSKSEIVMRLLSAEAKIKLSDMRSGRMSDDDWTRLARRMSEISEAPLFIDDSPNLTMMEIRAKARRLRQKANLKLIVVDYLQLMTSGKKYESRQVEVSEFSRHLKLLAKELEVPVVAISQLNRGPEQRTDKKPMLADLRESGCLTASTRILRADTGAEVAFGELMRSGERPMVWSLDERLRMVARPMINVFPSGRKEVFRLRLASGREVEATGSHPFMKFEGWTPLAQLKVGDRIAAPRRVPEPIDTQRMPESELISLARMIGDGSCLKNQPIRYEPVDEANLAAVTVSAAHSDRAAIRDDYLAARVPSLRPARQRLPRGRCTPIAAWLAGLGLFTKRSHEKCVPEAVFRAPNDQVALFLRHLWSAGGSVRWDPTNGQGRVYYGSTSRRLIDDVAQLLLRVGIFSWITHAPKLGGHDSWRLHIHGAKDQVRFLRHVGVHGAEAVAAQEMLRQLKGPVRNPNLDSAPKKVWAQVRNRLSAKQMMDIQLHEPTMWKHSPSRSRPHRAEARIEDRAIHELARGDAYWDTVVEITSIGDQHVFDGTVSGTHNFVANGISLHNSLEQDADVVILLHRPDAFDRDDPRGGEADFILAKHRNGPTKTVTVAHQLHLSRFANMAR

[12] = target: T3, Apoptotic protease-activating factor 1 (Homo sapiens, UniProt O14727); assay type: functional
T3 sequence (O14727 whole entry): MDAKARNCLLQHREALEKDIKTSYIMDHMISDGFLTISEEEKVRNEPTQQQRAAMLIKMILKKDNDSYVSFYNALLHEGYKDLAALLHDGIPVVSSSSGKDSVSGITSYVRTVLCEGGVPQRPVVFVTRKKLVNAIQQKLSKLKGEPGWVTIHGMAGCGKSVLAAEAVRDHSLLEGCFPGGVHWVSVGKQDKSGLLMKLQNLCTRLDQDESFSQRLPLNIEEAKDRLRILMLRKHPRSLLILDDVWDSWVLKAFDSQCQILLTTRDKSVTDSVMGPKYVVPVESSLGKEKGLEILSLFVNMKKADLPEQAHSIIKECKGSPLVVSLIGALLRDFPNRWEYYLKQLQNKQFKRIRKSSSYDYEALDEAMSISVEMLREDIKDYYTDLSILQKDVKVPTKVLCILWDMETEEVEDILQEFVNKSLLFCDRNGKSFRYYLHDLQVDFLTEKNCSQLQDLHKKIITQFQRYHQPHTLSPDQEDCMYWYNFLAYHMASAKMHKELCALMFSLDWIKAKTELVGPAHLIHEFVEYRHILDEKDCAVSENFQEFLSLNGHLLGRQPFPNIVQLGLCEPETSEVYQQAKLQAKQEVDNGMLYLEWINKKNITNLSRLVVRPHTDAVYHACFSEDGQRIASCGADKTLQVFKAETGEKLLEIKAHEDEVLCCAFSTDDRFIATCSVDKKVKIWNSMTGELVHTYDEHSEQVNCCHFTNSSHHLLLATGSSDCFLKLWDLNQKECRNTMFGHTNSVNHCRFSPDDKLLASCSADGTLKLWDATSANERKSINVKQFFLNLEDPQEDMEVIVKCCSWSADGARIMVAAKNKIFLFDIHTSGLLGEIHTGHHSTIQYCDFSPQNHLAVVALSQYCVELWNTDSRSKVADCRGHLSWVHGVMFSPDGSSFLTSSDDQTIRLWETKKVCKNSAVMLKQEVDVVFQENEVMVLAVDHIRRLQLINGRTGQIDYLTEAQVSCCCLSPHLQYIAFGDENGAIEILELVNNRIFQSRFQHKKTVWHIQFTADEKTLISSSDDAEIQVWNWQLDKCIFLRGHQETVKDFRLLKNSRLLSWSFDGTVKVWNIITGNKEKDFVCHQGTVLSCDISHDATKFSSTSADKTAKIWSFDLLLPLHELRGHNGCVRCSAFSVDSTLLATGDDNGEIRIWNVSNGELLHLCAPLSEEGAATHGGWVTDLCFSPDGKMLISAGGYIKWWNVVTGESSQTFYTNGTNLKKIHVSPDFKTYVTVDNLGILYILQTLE

Protein RecA = target: T4, Protein RecA (Mycobacterium tuberculosis, UniProt P9WHJ3); test: Fluorescence Cell-Free Homogeneous Dose Retest to Identify Inhibitors of RecA-Intein Splicing Activity. [Related pubchem assays (depositor defined):AID2097, AID2223, AID489010, AID492950]; assay type: functional
T4 sequence (P9WHJ3 whole entry): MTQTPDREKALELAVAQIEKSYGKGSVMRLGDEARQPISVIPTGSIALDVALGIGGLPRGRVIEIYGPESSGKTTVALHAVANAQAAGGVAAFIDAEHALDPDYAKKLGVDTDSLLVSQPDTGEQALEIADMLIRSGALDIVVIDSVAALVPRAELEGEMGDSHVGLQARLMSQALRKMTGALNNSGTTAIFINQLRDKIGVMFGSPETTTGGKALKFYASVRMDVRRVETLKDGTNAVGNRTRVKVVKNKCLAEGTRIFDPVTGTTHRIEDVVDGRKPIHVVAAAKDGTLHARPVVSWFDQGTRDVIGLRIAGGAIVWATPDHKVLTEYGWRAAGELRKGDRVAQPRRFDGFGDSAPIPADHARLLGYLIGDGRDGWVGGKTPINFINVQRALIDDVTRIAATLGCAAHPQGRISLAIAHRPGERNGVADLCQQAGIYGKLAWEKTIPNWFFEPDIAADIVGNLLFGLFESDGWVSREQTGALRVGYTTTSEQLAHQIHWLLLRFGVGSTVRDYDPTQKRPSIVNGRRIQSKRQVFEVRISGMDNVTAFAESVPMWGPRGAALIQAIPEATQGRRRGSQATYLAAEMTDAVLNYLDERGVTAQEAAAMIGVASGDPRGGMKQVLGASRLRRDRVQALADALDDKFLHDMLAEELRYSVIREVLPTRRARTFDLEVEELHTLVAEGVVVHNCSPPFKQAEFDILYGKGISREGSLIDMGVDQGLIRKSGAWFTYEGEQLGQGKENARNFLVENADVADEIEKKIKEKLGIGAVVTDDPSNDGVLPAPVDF

INS1 = test: beta cell apoptosis inhibitors, cytokine rescue, dose response, luminescence, retest (AID 449756); assay type: functional, cell-based; settings: Rattus norvegicus;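 further: cell death triggered by IL-1 beta plus TNF-alpha plus IFN-gamma mixture; protective hits raise ATP signal compared with cytokine alone wells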
Cytochrome P450 1A2 = target: T5, Cytochrome P450 1A2 (Homo sapiens, UniProt P05177);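 further: PubChem cytochrome P450 panel assay, CYP1A2 panel member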
T5 sequence (P05177 whole entry): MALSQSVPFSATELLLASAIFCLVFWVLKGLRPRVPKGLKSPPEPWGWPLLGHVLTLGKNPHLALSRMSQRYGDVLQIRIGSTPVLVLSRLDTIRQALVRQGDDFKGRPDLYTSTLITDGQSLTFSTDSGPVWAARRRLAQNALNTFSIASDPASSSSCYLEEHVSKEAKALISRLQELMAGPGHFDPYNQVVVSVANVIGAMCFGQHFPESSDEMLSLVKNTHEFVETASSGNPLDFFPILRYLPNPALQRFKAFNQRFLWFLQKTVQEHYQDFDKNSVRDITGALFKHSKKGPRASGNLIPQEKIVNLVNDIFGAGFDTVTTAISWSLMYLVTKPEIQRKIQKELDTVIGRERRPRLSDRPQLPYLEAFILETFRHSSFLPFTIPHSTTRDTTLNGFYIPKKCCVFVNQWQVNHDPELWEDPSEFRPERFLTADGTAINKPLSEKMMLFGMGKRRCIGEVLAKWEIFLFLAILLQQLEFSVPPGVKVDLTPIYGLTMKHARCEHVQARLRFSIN

O=c1cc(-c2ccc(O)cc2)oc2ccc3ccccc3c12
AC50 [1]: 2.15 µM (active)
AC50 [2]: 5.41 µM (active)
AC50 [3]: 41.6 µM (active)
AC50 (Paired box protein Pax-8): 8.88 µM (active)
AC50 [4]: 31.3 µM (active)

c1coc(-c2nc3nc4ccccc4n3nc2-c2ccco2)c1
CC50 (Vero): > 40 µM (active)
IC50 (Genome polyprotein): 99.3 µM (active)

COc1ccc(S(=O)(=O)N(C)C[C@@H]2Oc3ccc(NC(=O)C4CCCCC4)cc3CC(=O)N([C@H](C)CO)C[C@@H]2C)cc1
AC50 [5]: 0.574 µM (active)
AC50 [6]: 2.96 µM (active)
AC50 [7]: 4.51 µM (active)

Cc1cccc(C(=O)Nc2ccc(C(=O)N/N=C/c3ccco3)cc2)c1
IC50 [8]: 4.79 µM (active)

Cc1c(NC(=O)c2cccc(NC(=O)COc3ccccc3C#N)c2)c(=O)n(-c2ccccc2)n1C
AC50 (HEK293): 5.77 µM (active)
AC50 [9]: 2.66 µM (active)
AC50 [10]: 4.53 µM (active)

Cc1cc(C(=O)N/N=C/c2c(C)nn(-c3ccccc3)c2O)[nH]n1
IC50 (Nonstructural protein 1): 11.8 µM (active)
AC50 [11]: 226 µM (active)
IC50 [12]: 6.97 µM (active)
EC50 (Protein RecA): 27 µM (active)

CCN(C1CCCCC1)S(=O)(=O)c1ccc(S(=O)(=O)NCc2ccncc2)cc1
AC50 (INS1): 5.12 µM (active)
AC50 [6]: 3.52 µM (active)
AC50 [7]: 7.99 µM (active)
AC50 (Cytochrome P450 1A2): 15.8 µM (inconclusive)

c1ccc2c(c1)nc(N1CCCCCC1)c1ccccc12
IC50 [8]: 17.4 µM (active)
